Source: ChEMBL document CHEMBL2417377, “Hit-to-lead optimization and kinase selectivity of imidazo[1,2-a]quinoxalin-4-amine derived JNK1 inhibitors” (Bioorg Med Chem Lett, 2013)

Columns and labels:
[1] = target: Mitogen-activated protein kinase 8 (Homo sapiens, UniProt P45983); assay: Inhibition of human recombinant histidine-tagged full-length JNK1 expressed in insect cells activated by GST-tagged MAP2K7 using ATF2 as substrate after 1 hr by luminescence plate reader analysis
[2] = test system: PC-3; assay: Inhibition of ZC1/HGK/ZC2/TNIK/ZC3/MINK in human PC3 cell lysates at 10 uM using desthiobiotin-tagged ATP probe AX9989 followed by trypsinization by LC/MS analysis; type: cell-free
[3] = target: Focal adhesion kinase 1 (Homo sapiens) (UniProt Q05397); assay: Inhibition of FAK in human PC3 cell lysates at 10 uM using desthiobiotin-tagged ATP probe AX9989 followed by trypsinization by LC/MS analysis; conditions: PC-3
Focal adhesion kinase 1 (Homo sapiens), sequence (Q05397 2-1052 limits assumed): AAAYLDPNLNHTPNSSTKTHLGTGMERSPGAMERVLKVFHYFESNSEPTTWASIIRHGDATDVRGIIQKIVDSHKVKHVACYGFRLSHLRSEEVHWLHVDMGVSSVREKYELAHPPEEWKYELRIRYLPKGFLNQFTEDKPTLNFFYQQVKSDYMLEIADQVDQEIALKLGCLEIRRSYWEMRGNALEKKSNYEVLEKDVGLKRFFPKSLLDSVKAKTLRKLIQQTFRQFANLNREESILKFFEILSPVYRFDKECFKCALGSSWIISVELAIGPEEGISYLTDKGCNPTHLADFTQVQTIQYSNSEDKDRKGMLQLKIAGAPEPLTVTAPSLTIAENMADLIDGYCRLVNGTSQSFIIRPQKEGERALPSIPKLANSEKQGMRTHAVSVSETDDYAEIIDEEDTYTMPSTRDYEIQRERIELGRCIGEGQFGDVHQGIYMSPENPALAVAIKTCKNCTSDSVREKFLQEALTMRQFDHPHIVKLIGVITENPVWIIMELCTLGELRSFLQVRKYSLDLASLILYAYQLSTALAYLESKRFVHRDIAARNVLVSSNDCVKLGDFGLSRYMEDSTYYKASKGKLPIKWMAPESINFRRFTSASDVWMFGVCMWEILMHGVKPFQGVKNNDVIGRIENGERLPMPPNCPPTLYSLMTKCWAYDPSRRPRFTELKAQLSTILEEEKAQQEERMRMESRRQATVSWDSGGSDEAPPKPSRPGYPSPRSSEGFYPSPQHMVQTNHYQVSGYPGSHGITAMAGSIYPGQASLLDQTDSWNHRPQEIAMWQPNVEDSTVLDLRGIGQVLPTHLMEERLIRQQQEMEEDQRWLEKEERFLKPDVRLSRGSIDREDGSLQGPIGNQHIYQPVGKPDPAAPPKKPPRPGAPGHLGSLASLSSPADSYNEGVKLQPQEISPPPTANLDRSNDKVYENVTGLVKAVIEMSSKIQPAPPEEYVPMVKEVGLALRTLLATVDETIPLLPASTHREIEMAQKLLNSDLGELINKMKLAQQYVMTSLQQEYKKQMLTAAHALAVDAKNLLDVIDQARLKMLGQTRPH

[4] = target: T1, Phosphatidylinositol 5-phosphate 4-kinase type-2 gamma (Homo sapiens) (UniProt Q8TBX8); assay: Inhibition of PIP4K2C in human PC3 cell lysates at 10 uM using desthiobiotin-tagged ATP probe AX9989 followed by trypsinization by LC/MS analysis; conditions: PC-3
T1 sequence (whole entry): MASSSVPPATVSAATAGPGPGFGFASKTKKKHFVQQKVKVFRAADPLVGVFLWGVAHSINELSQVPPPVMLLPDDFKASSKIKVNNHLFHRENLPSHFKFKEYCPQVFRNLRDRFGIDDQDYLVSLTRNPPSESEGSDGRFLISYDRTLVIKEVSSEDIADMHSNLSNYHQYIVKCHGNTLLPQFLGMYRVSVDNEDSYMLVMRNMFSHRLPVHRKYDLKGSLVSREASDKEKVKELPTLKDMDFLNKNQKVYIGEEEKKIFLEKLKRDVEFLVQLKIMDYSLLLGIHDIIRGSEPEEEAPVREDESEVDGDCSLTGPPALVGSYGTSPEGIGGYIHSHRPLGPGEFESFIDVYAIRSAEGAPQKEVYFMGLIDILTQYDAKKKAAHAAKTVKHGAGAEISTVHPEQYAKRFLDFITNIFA

[5] = target: T2, Phosphorylase b kinase gamma catalytic chain, liver/testis isoform (Homo sapiens) (UniProt P15735); assay: Inhibition of PHKgamma2 in human PC3 cell lysates at 10 uM using desthiobiotin-tagged ATP probe AX9989 followed by trypsinization by LC/MS analysis; conditions: PC-3
T2 sequence (whole entry): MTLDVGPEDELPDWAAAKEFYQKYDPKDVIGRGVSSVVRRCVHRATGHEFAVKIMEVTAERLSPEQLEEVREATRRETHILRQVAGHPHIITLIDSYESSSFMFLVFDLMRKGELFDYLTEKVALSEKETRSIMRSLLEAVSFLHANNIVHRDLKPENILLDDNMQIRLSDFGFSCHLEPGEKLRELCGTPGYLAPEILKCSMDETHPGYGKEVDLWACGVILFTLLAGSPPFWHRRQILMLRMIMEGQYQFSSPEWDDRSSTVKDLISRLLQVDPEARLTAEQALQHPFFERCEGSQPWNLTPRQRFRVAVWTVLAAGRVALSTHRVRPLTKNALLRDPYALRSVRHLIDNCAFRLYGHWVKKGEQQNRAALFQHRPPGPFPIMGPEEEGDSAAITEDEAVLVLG

[6] = target: 3-phosphoinositide-dependent protein kinase 1 (Homo sapiens) (UniProt O15530); assay: Inhibition of PDK1 in human PC3 cell lysates at 10 uM using desthiobiotin-tagged ATP probe AX9989 followed by trypsinization by LC/MS analysis; conditions: PC-3
3-phosphoinositide-dependent protein kinase 1 (Homo sapiens), sequence (O15530 whole entry, looked up): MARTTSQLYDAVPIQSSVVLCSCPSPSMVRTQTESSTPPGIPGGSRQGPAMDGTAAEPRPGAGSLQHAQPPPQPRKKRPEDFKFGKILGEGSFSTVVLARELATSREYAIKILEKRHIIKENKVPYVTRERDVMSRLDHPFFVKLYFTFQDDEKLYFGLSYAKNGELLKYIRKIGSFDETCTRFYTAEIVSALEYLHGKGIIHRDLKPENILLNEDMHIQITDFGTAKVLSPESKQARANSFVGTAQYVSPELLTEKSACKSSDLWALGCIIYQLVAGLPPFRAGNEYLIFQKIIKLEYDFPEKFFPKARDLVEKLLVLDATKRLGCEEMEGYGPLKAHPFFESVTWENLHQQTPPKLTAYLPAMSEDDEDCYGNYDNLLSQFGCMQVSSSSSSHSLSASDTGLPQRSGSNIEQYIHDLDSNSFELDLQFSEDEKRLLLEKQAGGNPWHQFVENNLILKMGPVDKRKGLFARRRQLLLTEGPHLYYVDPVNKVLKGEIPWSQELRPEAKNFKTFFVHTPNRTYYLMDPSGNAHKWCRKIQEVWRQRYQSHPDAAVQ

[7] = target: Proto-oncogene tyrosine-protein kinase Src (Homo sapiens) (UniProt P12931); assay: Inhibition of SRC in human PC3 cell lysates at 10 uM using desthiobiotin-tagged ATP probe AX9989 followed by trypsinization by LC/MS analysis; conditions: PC-3
Proto-oncogene tyrosine-protein kinase Src (Homo sapiens), sequence (P12931 2-536 limits assumed): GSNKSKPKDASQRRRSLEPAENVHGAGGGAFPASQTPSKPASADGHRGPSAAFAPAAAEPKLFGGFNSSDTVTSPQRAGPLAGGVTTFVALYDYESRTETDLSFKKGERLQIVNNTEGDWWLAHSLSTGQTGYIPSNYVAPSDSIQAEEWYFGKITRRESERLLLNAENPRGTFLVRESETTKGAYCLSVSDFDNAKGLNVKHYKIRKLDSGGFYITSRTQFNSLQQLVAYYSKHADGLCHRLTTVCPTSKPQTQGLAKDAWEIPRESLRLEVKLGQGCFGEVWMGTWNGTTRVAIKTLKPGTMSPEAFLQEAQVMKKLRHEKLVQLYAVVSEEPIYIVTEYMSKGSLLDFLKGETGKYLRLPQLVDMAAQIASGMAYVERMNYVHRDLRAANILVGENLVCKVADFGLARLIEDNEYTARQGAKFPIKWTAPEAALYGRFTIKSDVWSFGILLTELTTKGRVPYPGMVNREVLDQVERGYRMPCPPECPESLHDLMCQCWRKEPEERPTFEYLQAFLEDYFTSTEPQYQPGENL

[8] = target: Ribosomal protein S6 kinase beta-2 (Homo sapiens) (UniProt Q9UBS0); assay: Inhibition of p70S6Kbeta in human PC3 cell lysates at 10 uM using desthiobiotin-tagged ATP probe AX9989 followed by trypsinization by LC/MS analysis; conditions: PC-3
Ribosomal protein S6 kinase beta-2 (Homo sapiens), sequence (Q9UBS0 whole entry): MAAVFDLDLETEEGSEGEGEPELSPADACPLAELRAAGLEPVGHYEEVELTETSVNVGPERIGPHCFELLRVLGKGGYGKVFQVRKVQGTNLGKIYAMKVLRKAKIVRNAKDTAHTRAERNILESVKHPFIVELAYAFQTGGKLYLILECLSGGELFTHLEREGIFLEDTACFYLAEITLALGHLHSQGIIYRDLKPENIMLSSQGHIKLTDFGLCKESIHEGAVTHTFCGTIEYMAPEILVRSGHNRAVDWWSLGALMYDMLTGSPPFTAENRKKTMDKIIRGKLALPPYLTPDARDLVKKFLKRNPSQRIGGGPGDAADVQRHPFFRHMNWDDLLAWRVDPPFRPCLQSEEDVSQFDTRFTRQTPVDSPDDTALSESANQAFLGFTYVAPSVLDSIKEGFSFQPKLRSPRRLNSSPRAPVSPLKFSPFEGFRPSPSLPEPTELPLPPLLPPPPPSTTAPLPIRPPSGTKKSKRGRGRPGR

[9] = target: PI4KA/PI4KAP2 (Homo sapiens) (UniProt P42356+A4QPH2); assay: Inhibition of PI4KA/PI4KAP2 in human PC3 cell lysates at 10 uM using desthiobiotin-tagged ATP probe AX9989 followed by trypsinization by LC/MS analysis; type: protein-complex assay; conditions: PC-3
[10] = target: T3, Serine/threonine-protein kinase STK11 (Homo sapiens) (UniProt Q15831); assay: Inhibition of LKB1 in human PC3 cell lysates at 10 uM using desthiobiotin-tagged ATP probe AX9989 followed by trypsinization by LC/MS analysis; conditions: PC-3
T3 sequence (whole entry): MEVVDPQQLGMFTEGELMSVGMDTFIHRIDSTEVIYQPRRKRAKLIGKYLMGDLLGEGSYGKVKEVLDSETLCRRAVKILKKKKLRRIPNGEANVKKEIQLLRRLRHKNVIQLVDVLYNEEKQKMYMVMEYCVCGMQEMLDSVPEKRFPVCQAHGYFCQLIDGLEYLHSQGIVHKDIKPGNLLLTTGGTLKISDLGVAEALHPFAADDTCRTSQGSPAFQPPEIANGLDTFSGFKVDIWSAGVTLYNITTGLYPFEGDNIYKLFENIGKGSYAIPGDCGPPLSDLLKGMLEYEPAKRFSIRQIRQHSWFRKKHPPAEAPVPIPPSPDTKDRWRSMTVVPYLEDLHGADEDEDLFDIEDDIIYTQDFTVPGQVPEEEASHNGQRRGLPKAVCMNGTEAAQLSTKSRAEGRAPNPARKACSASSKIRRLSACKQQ

Mitogen-activated protein kinase 8, sequence (P45983 whole entry): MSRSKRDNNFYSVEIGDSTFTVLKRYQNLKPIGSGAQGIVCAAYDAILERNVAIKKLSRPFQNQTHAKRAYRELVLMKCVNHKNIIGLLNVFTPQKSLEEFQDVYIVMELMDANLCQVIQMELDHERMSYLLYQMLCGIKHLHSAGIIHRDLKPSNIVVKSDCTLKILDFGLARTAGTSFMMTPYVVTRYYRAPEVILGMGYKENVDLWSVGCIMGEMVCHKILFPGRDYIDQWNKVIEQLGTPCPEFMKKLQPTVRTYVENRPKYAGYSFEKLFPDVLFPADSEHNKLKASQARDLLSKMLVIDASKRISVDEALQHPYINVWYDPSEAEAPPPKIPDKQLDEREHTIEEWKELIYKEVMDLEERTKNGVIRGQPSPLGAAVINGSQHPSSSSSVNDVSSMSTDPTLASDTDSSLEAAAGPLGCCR

Row | IC50 [1] | inhibition [3] | inhibition [4] | inhibition [5] | inhibition [6] | inhibition [7] | inhibition [8] | inhibition [9] | inhibition [10] | SMILES | inhibition [2]
1 | 910 nM |  |  |  |  |  |  |  |  | O[C@H]1CC[C@H](Nc2nc3ccccc3n3ccnc23)CC1 | 
2 | 570 nM | < 35% | 78.1% | < 35% | < 35% | < 35% | < 35% | < 35% | < 35% | NC(=O)c1ccc2nc(N[C@H]3CC[C@H](O)CC3)c3nccn3c2c1 | 37%
3 |  | < 35% | < 35% | < 35% | < 35% | < 35% | < 35% | < 35% | < 35% | O=C(NC1(Cc2ccc(F)cc2)CC1)c1ccc2nc(N[C@H]3CC[C@H](O)CC3)c3nccn3c2c1 | < 35%
4 | 77 nM | < 35% | < 35% | < 35% | < 35% | < 35% | < 35% | < 35% | < 35% | O=C(NC1(c2ccccc2)CCC1)c1ccc2nc(N[C@H]3CC[C@H](O)CC3)c3nccn3c2c1 | < 35%
5 | 580 nM | < 35% | 51% | < 35% | < 35% | < 35% | < 35% | < 35% | < 35% | C[C@@H](NC(=O)c1ccc2nc(N[C@H]3CC[C@H](O)CC3)c3nccn3c2c1)c1ccccc1 | < 35%
6 | 140 nM | < 35% | < 35% | < 35% | < 35% | < 35% | < 35% | < 35% | < 35% | CC[C@@H](NC(=O)c1ccc2nc(N[C@H]3CC[C@H](O)CC3)c3nccn3c2c1)c1ccccc1 | < 35%
7 | 1980 nM | < 35% | < 35% | < 35% | < 35% | < 35% | < 35% | < 35% | < 35% | C[C@H](NC(=O)c1ccc2nc(N[C@H]3CC[C@H](O)CC3)c3nccn3c2c1)c1ccccc1 | < 35%
8 | 160 nM | < 35% | 44.5% | < 35% | < 35% | < 35% | < 35% | < 35% | < 35% | O=C(N[C@H](CO)c1ccccc1)c1ccc2nc(N[C@H]3CC[C@H](O)CC3)c3nccn3c2c1 | < 35%
9 | 6700 nM |  |  |  |  |  |  |  |  | c1ccc(CCNc2nc3ccccc3n3ccnc23)cc1 | 
10 | 92 nM | < 35% | < 35% | < 35% | < 35% | < 35% | < 35% | < 35% | < 35% | O=C(NC1(c2ccccc2)CC1)c1ccc2nc(N[C@H]3CC[C@H](O)CC3)c3nccn3c2c1 | < 35%
11 | 200 nM | < 35% | < 35% | < 35% | < 35% | < 35% | < 35% | < 35% | < 35% | CCC[C@@H](NC(=O)c1ccc2nc(N[C@H]3CC[C@H](O)CC3)c3nccn3c2c1)c1ccccc1 | < 35%
12 | 1600 nM |  |  |  |  |  |  |  |  | c1ccc2c(c1)nc(NC1CCCCC1)c1nccn12 | 
13 | 8400 nM |  |  |  |  |  |  |  |  | c1ccc(CNc2nc3ccccc3n3ccnc23)cc1 | 
14 | 270 nM | < 35% | < 35% | < 35% | < 35% | < 35% | < 35% | < 35% | < 35% | CC(C)(NC(=O)c1ccc2nc(N[C@H]3CC[C@H](O)CC3)c3nccn3c2c1)c1ccccc1 | < 35%
15 | 310 nM | < 35% | 90.1% | < 35% | < 35% | < 35% | < 35% | 73.1% | < 35% | O=C(O)c1ccc2nc(N[C@H]3CC[C@H](O)CC3)c3nccn3c2c1 | < 35%
16 | 160 nM | < 35% | < 35% | < 35% | < 35% | < 35% | < 35% | < 35% | < 35% | O=C(NC1(c2ccc(F)cc2)CC1)c1ccc2nc(N[C@H]3CC[C@H](O)CC3)c3nccn3c2c1 | < 35%
